Experimental data reported in patent US12091411B2, “IRAK degraders and uses thereof” (Kymera Therapeutics, Inc., priority 2022, dated 2024).
Like-named read-outs stand apart in the source and are kept apart here.

Target: T1, IRAK4 (Homo sapiens, UniProt Q9NWZ3)
T1 construct: Degradation of IRAK4 in OCI-LY10 was quantitatively measured using Meso Scale Discovery technology; endogenous in cells; host or cells: OCI-LY10
T1 sequence (Q9NWZ3 1-460): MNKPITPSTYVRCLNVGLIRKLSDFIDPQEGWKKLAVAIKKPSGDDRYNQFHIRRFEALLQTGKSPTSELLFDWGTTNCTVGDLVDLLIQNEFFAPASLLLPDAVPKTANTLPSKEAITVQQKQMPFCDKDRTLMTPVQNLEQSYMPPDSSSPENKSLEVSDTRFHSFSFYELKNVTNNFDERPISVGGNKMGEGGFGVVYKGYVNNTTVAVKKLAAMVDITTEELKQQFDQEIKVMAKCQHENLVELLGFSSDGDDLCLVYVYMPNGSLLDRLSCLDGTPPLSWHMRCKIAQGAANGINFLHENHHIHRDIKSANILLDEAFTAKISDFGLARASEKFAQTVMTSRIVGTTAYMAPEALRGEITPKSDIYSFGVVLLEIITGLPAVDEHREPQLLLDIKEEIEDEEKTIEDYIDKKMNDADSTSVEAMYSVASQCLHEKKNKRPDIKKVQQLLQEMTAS
Test: IRAK4 MSD Degradation in OCI-LY10
Type: cell-based
Conditions: OCI-LY10 cells
Method in brief: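 OCI-LY10 cells exposed to 8-point 1:3 compound series (top 1 to 10 μM) for 4 to 24 h at 37 °C, 5% CO2. Lysate IRAK4 quantified by MSD sandwich immunoassay. DC50 from three-parameter logistic fit, binned A (<0.01 μM) to D (>0.2 μM or not tested).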

[1] = 4 hrs incubation, MSD, read-out: IRAK4 degradation in OCI-LY10 at 4 hrs: DC50
[2] = 24 hrs incubation, MSD, read-out: IRAK4 degradation in OCI-LY10 at 24 hrs: DC50

SMILES | DC50 [1] [nM] | DC50 [2] [nM] | DC50 (4 hrs incubation, read-out: IRAK4 degradation in OCI-LY10 at 4 hrs: DC50) [nM] | DC50 (24 hrs incubation, read-out: IRAK4 degradation in OCI-LY10 at 24 hrs: DC50) [nM]
Cn1c(=O)n(C2CCC(=O)NC2=O)c2cccc(C#CCOC3CCN(C[C@H]4CC[C@H](c5ccc(C(F)F)c(NC(=O)c6cnn7ccc(N8C[C@H]9C[C@@H]8CO9)nc67)c5)CC4)CC3)c21 (stereo partly drawn) [I-175] | > 200 | > 200 | – | –
COc1cc2nn([C@H]3CC[C@H](CN4CCC5(CC4)CCN(c4cccc6c4n(C)c(=O)n6C4CCC(=O)NC4=O)CC5)CC3)cc2cc1NC(=O)c1cncc(SC)c1 (stereo partly drawn) [I-149] | < 10 | > 200 | – | –
Cn1c(=O)n(C2CCC(=O)NC2=O)c2cccc([C@H]3CCN(C[C@H]4CC[C@H](n5cc6cc(NC(=O)c7cccc(C#N)n7)ncc6n5)CC4)C[C@H]3F)c21 (stereo partly drawn) [I-639] | > 200 | > 200 | – | –
CO[C@@H]1CN(c2cccc3c2n(C)c(=O)n3C2CCC(=O)NC2=O)CC[C@H]1N(C)C[C@H]1CC[C@H](n2cc3cc(NC(=O)c4cccc(C(F)(F)F)n4)ccc3n2)CC1 (stereo partly drawn) [I-495] | > 200 | > 200 | – | –
Cn1c(=O)n(C2CCC(=O)NC2=O)c2cccc(C#CCN3CCN(C[C@H]4CC[C@H](n5cc(NC(=O)c6cnn7ccc(N8CCCCC8)nc67)c(C(F)F)n5)CC4)CC3)c21 (stereo partly drawn) [I-100] | 10 to 100 | > 200 | – | –
O=C1CCN(c2ccc(C#CCN3CCN(C[C@H]4CC[C@@H](n5cc(NC(=O)c6cnn7ccc(N8C[C@@H]9C[C@H]8CO9)nc67)c(C(F)F)n5)CC4)CC3)cc2)C(=O)N1 [I-124] | > 200 | > 200 | – | –
Cn1c(=O)n(C2CCC(=O)NC2=O)c2cccc([C@H]3C[C@H](O[C@@H]4CCN(C[C@H]5CC[C@H](n6cc(NC(=O)c7cnn8ccc(N9C[C@H]%10C[C@@H]9CO%10)nc78)c(C(F)F)n6)CC5)C[C@@H]4F)C3)c21 (stereo partly drawn) [I-593] | > 200 | > 200 | – | –
Cn1c(=O)n(C2CCC(=O)NC2=O)c2ccc(C3CCN(C[C@H]4CC[C@H](n5cc6cc(NC(=O)c7cccc(C(F)(F)F)n7)c(C(F)F)cc6n5)CC4)CC3(F)F)cc21 (stereo partly drawn) [I-569] | > 200 | > 200 | – | –
COc1ccc2c(c1C#CCO[C@H]1CCN(C[C@H]3CC[C@H](n4cc(NC(=O)c5cnn6ccc(N7C[C@H]8C[C@@H]7CO8)nc56)c(C(F)F)n4)CC3)C[C@@H]1C)n(C)c(=O)n2C1CCC(=O)NC1=O (stereo partly drawn) [I-58] | < 10 | > 200 | – | –
COc1ccc2c(c1C1CCN(C[C@H]3CC[C@H](n4cc5cc(NC(=O)c6cccc(C(F)(F)F)n6)ccc5n4)CC3)CC1F)n(C)c(=O)n2C1CCC(=O)NC1=O (stereo partly drawn) [I-551] | > 200 | > 200 | – | –
Cn1c(=O)n(C2CCC(=O)NC2=O)c2cccc(C#CCOC3CCN([C@H]4CC[C@@H](n5cc(NC(=O)c6cnn7ccc(N8C[C@H]9C[C@@H]8CO9)nc67)c(C(F)F)n5)CC4)CC3)c21 (stereo partly drawn) [I-420] | > 200 | > 200 | – | –
O=C1CCN(c2cncc3cc(C4CCN(C[C@H]5CC[C@H](n6cc7cc(NC(=O)c8cccc(C(F)(F)F)n8)ccc7n6)CC5)CC4(F)F)ccc23)C(=O)N1 (stereo partly drawn) [I-473] | > 200 | > 200 | – | –
Cn1c(=O)n(C2CCC(=O)NC2=O)c2cccc(C3CN([C@@H]4CCN(C[C@H]5CC[C@H](n6cc(NC(=O)c7cnn8ccc(N9C[C@H]%10C[C@@H]9CO%10)nc78)c(C(F)F)n6)CC5)C[C@H]4F)C3)c21 (stereo partly drawn) [I-681] | > 200 | < 10 | – | –
CN(C[C@H]1CC[C@H](n2cc3cc(NC(=O)c4cccc(C(F)(F)F)n4)c(S(C)(=O)=O)cc3n2)CC1)C1CCN(c2cccc3c2n(C)c(=O)n3C2CCC(=O)NC2=O)CC1F (stereo partly drawn) [I-559] | > 200 | > 200 | – | –
Cn1c(=O)n(C2CCC(=O)NC2=O)c2cccc(C#CCOC3CCN(C[C@H]4CC[C@H](n5cc(NC(=O)c6cnn7ccc(N8CCOC(F)(F)C8)nc67)c(C(F)F)n5)CC4)CC3)c21 (stereo partly drawn) [I-334] | > 200 | > 200 | – | –
CN1CCOCC1c1ccn2ncc(C(=O)Nc3cn([C@H]4CC[C@H](CN5CCN(CC#Cc6cccc7c6n(C)c(=O)n7C6CCC(=O)NC6=O)CC5)CC4)nc3C(F)F)c2n1 (stereo partly drawn) [I-302] | > 200 | > 200 | – | –
Cn1c(=O)n(C2CCC(=O)NC2=O)c2cccc(C#CCN3CCN(C[C@H]4CC[C@H](n5cc(NC(=O)c6cnn7ccc(N8CCCC(C)(C)C8)nc67)c(C(F)F)n5)CC4)CC3)c21 (stereo partly drawn) [I-229] | > 200 | 10 to 100 | – | –
COc1cc2nn([C@H]3CC[C@H](CN4CCC5(CC4)CCN(c4cccc6c4n(C)c(=O)n6C4CCC(=O)NC4=O)CC5)CC3)cc2cc1NC(=O)c1cncc(F)c1 (stereo partly drawn) [I-83] | > 200 | > 200 | – | –

SMILES | DC50 [1] [nM] | DC50 [2] [nM] | DC50 (4 hrs incubation, read-out: IRAK4 degradation in OCI-LY10 at 4 hrs: DC50) [nM] | DC50 (24 hrs incubation, read-out: IRAK4 degradation in OCI-LY10 at 24 hrs: DC50) [nM]
Cn1c(=O)n(C2CCC(=O)NC2=O)c2cccc(N3CC(F)(F)C34CN(C[C@H]3CC[C@H](n5cc6cc(NC(=O)c7cccc(C(F)(F)F)n7)c(C#N)cc6n5)CC3)C4)c21 (stereo partly drawn) [I-564] | > 200 | > 200 | – | –
Cn1c(=O)n(C2CCC(=O)NC2=O)c2cccc(C[C@@H]3CN(C[C@H]4CC[C@H](n5cc(NC(=O)c6cnn7cccnc67)c(C(F)F)n5)CC4)CCO3)c21 (stereo partly drawn) [I-391] | > 200 | > 200 | – | –
Cn1c(=O)n(C2CCC(=O)NC2=O)c2cccc(C#CCOC3CCN(C[C@H]4CC[C@H](n5cc(NC(=O)c6cccc(C#N)n6)c(C(C)(C)O)n5)CC4)CC3)c21 (stereo partly drawn) [I-262] | > 200 | > 200 | – | –
Cn1c(=O)n(C2CCC(=O)NC2=O)c2cccc(C#CCN3CCN(C[C@H]4CC[C@H](n5cc(NC(=O)c6cnn7ccc(C8CCC8)nc67)c(C(F)F)n5)CC4)CC3)c21 (stereo partly drawn) [I-109] | 10 to 100 | > 200 | – | –
Cn1c(=O)n(C2CCC(=O)NC2=O)c2cccc([C@H]3C[C@@H](COC4CN(C[C@H]5CC[C@H](n6cc(NC(=O)c7cnn8ccc(N9C[C@H]%10C[C@@H]9CO%10)nc78)c(C(F)F)n6)CC5)C4)C3)c21 (stereo partly drawn) [I-597] | > 200 | < 10 | – | –
Cn1c(=O)n(C2CCC(=O)NC2=O)c2cccc(N3CC(O[C@H]4CC[C@H](n5cc6cc(NC(=O)c7cccc(C(F)(F)F)n7)ncc6n5)CC4)C3)c21 (stereo partly drawn) [I-795] | – | – | > 200 | > 200
Cn1c(=O)n(C2CCC(=O)NC2=O)c2cccc(N3CC4(C3)N(C[C@H]3CC[C@H](n5cc6cc(NC(=O)c7cccc(C(F)(F)F)n7)ccc6n5)CC3)CC4(F)F)c21 (stereo partly drawn) [I-500] | > 200 | > 200 | – | –
Cn1c(=O)n(C2CCC(=O)NC2=O)c2cccc(C#CCN3CCN(C[C@H]4CC[C@H](n5cc(NC(=O)c6cnn7ccc(N8C[C@H]9C[C@@H]8CO9)nc67)c(F)n5)CC4)CC3)c21 (stereo partly drawn) [I-281] | > 200 | > 200 | – | –
CN(C[C@H]1CC[C@H](n2cc(NC(=O)c3cnn4ccc(N5CC(C)(C)OC(C)(C)C5)nc34)c(C(F)F)n2)CC1)C1CCN(c2cccc3c2n(C)c(=O)n3C2CCC(=O)NC2=O)CC1(F)F (stereo partly drawn) [I-531] | > 200 | > 200 | – | –
Cn1c(=O)n(C2CCC(=O)NC2=O)c2cccc(C#CCO[C@H]3CCN(C[C@H]4CC[C@H](n5cc(NC(=O)c6cnn7ccc(N8CCS(=O)(=O)CC8)nc67)c(C(F)F)n5)CC4)C[C@@H]3F)c21 (stereo partly drawn) [I-591] | > 200 | > 200 | – | –
CN1CCC(c2ccn3ncc(C(=O)Nc4cn([C@H]5CC[C@H](CN6CCN(CC#Cc7cccc8c7n(C)c(=O)n8C7CCC(=O)NC7=O)CC6)CC5)nc4C(F)F)c3n2)C(F)(F)C1 (stereo partly drawn) [I-413] | > 200 | > 200 | – | –
CN(C[C@H]1CC[C@H](n2cc(NC(=O)c3cnn4ccc(N5CCCC56CC6)nc34)c(C(F)F)n2)CC1)C1CCN(c2cccc3c2n(C)c(=O)n3C2CCC(=O)NC2=O)CC1(F)F (stereo partly drawn) [I-514] | > 200 | > 200 | – | –
Cn1c(=O)n(C2CCC(=O)NC2=O)c2cccc(CN3CC4(CCN(Cc5ccc(-n6cc(NC(=O)c7cnn8ccc(N9C[C@H]%10C[C@@H]9CO%10)nc78)c(C(F)F)n6)cc5)CC4)C3)c21 (stereo partly drawn) [I-402] | > 200 | > 200 | – | –
CO[C@@H]1CN(c2cccc3c2n(C)c(=O)n3C2CCC(=O)NC2=O)CC[C@@H]1N(C)C[C@H]1CC[C@H](n2cc3cc(NC(=O)c4cccc(C(F)(F)F)n4)ccc3n2)CC1 (stereo partly drawn) [I-497] | > 200 | > 200 | – | –
Cn1c(=O)n(C2CCC(=O)NC2=O)c2cccc(C#CCO[C@@H]3CCN(C[C@H]4CC[C@H](n5cc(NC(=O)c6cnn7ccc(N8CCS(=O)(=O)CC8)nc67)c(C(F)F)n5)CC4)C[C@H]3F)c21 (stereo partly drawn) [I-715] | > 200 | < 10 | – | –
Cn1c(=O)n(C2CCC(=O)NC2=O)c2cccc(C#CCN3CCN([C@H]4CC[C@H](n5cc(NC(=O)c6cnn7ccc(N8C[C@H]9C[C@@H]8CO9)nc67)c(C(F)F)n5)CC4)CC3)c21 (stereo partly drawn) [I-340] | > 200 | > 200 | – | –
COc1nc(NC(=O)c2cccc(C(F)(F)F)n2)cc2cn([C@H]3CC[C@H](CN4CCC(c5cccc6c5n(C)c(=O)n6C5CCC(=O)NC5=O)C(F)(F)C4)CC3)nc12 (stereo partly drawn) [I-769] | > 200 | > 200 | – | –
C[C@H]1CN(C[C@H]2CC[C@H](n3cc(NC(=O)c4cnn5ccc(N6C[C@H]7C[C@@H]6CO7)nc45)c(C(F)F)n3)CC2)CC[C@@H]1OCC#Cc1ccc2c(N3CCC(=O)NC3=O)cncc2c1 [I-57] | 10 to 100 | > 200 | – | –
